# Assays:
# Mus musculus [1] = test: Net log cell kill was determined after injecting 7.5 mg/kg intraperitoneally in CD2F1 mice; assay type: functional; conditions: route intraperitoneal
# Mus musculus [2] = test: Net log cell kill was determined after injecting 1.88 mg/kg intraperitoneally in CD2F1 mice; assay type: functional; conditions: route intraperitoneal
# Mus musculus [3] = test: Net log cell kill was determined after injecting 15 mg/kg intraperitoneally in CD2F1 mice; assay type: functional; conditions: route intraperitoneal
# Mus musculus [4] = test: Body weight change of test animals to that of control was determined after injection at 60 mg/kg intraperitoneally in CD2F1 mice; assay type: functional; conditions: route intraperitoneal
# Mus musculus [5] = test: Body weight change of test animals to that of control was determined after injection at 7.5 mg/kg intraperitoneally in CD2F1 mice; assay type: functional; conditions: route intraperitoneal
# Mus musculus [6] = test: Net log cell kill was determined after injecting 3.75 mg/kg intraperitoneally in CD2F1 mice; assay type: functional; conditions: route intraperitoneal
# Mus musculus [7] = test: Body weight change of test animals to that of control was determined after injection at 1.88 mg/kg intraperitoneally in CD2F1 mice; assay type: functional; conditions: route intraperitoneal
# Mus musculus [8] = test: Body weight change of test animals to that of control was determined after injection at 15 mg/kg intraperitoneally in CD2F1 mice; assay type: functional; conditions: route intraperitoneal
# Mus musculus [9] = test: Body weight change of test animals to that of control was determined after injection at 3.75 mg/kg intraperitoneally in CD2F1 mice; assay type: functional; conditions: route intraperitoneal
# Mus musculus [10] = test: Body weight change of test animals to that of control was determined after injection at 30 mg/kg intraperitoneally in CD2F1 mice; assay type: functional; conditions: route intraperitoneal
# Mus musculus [11] = test: Toxicity day survivors was determined by the ratio of animals survived to that of test animals at 1.88 mg/kg intraperitoneally in CD2F1 mice; 6/6; assay type: organism-based; parameters: dose 1.88 mg/kg, route intraperitoneal; conditions: in vivo, ip
# Mus musculus [12] = test: Toxicity day survivors was determined by the ratio of animals survived to that of test animals at 3.75 mg/kg intraperitoneally in CD2F1 mice; 6/6; assay type: organism-based; parameters: dose 3.75 mg/kg, route intraperitoneal; conditions: in vivo, ip
# Mus musculus [13] = test: Toxicity day survivors was determined by the ratio of animals survived to that of test animals at 30 mg/kg intraperitoneally in CD2F1 mice; 4/6; assay type: organism-based; parameters: dose 30 mg/kg, route intraperitoneal; conditions: in vivo, ip
# Mus musculus [14] = test: Toxicity day survivors was determined by the ratio of animals survived to that of test animals at 60 mg/kg intraperitoneally in CD2F1 mice; 4/6; assay type: organism-based; parameters: dose 60 mg/kg, route intraperitoneal; conditions: in vivo, ip
# Mus musculus [15] = test: Toxicity day survivors was determined by the ratio of animals survived to that of test animals at 15 mg/kg intraperitoneally in CD2F1 mice; 5/5; assay type: organism-based; parameters: dose 15 mg/kg, route intraperitoneal; conditions: in vivo, ip
# Mus musculus [16] = test: Ratio of treated to that of untreated tumor-bearing control animals at 7.5 mg/kg intraperitoneally in CD2F1 mice was determined; assay type: functional; conditions: route intraperitoneal
# Mus musculus [17] = test: Ratio of treated to that of untreated tumor-bearing control animals at 1.88 mg/kg intraperitoneally in CD2F1 mice was determined; assay type: functional; conditions: route intraperitoneal
# Mus musculus [18] = test: Ratio of treated to that of untreated tumor-bearing control animals at 15 mg/kg intraperitoneally in CD2F1 mice was determined; assay type: functional; conditions: route intraperitoneal
# Mus musculus [19] = test: Toxicity day survivors was determined by the ratio of animals survived to that of test animals at 7.5 mg/kg intraperitoneally in CD2F1 mice; 6/6; assay type: organism-based; parameters: dose 7.5 mg/kg, route intraperitoneal; conditions: in vivo, ip
# Mus musculus [20] = test: Ratio of treated to that of untreated tumor-bearing control animals at 3.75 mg/kg intraperitoneally in CD2F1 mice was determined; assay type: functional; conditions: route intraperitoneal
# Mus musculus [21] = test: Net log cell kill was determined after injecting 60 mg/kg intraperitoneally in CD2F1 mice; assay type: functional; conditions: route intraperitoneal
# Mus musculus [22] = test: Net log cell kill was determined after injecting 120 mg/kg intraperitoneally in CD2F1 mice; assay type: functional; conditions: route intraperitoneal
# Mus musculus [23] = test: Net log cell kill was determined after injecting 240 mg/kg intraperitoneally in CD2F1 mice; assay type: functional; conditions: route intraperitoneal
# Mus musculus [24] = test: Net log cell kill was determined after injecting 30 mg/kg intraperitoneally in CD2F1 mice; assay type: functional; conditions: route intraperitoneal
# Mus musculus [25] = test: Body weight change of test animals to that of control was determined after injection at 120 mg/kg intraperitoneally in CD2F1 mice; assay type: functional; conditions: route intraperitoneal
# Mus musculus [26] = test: Body weight change of test animals to that of control was determined after injection at 240 mg/kg intraperitoneally in CD2F1 mice; assay type: functional; conditions: route intraperitoneal
# Mus musculus [27] = test: Toxicity day survivors was determined by the ratio of animals survived to that of test animals at 120 mg/kg intraperitoneally in CD2F1 mice; 6/6; assay type: organism-based; parameters: dose 120 mg/kg, route intraperitoneal; conditions: in vivo, ip
# Mus musculus [28] = test: Toxicity day survivors was determined by the ratio of animals survived to that of test animals at 240 mg/kg intraperitoneally in CD2F1 mice; 6/6; assay type: organism-based; parameters: dose 240 mg/kg, route intraperitoneal; conditions: in vivo, ip
# Mus musculus [29] = test: Toxicity day survivors was determined by the ratio of animals survived to that of test animals at 30 mg/kg intraperitoneally in CD2F1 mice; 6/6; assay type: organism-based; parameters: dose 30 mg/kg, route intraperitoneal; conditions: in vivo, ip
# Mus musculus [30] = test: Ratio of treated to that of untreated tumor-bearing control animals at 30 mg/kg intraperitoneally in CD2F1 mice was determined; assay type: functional; conditions: route intraperitoneal
# Mus musculus [31] = test: Ratio of treated to that of untreated tumor-bearing control animals at 60 mg/kg intraperitoneally in CD2F1 mice was determined; assay type: functional; conditions: route intraperitoneal
# Mus musculus [32] = test: Ratio of treated to that of untreated tumor-bearing control animals at 120 mg/kg intraperitoneally in CD2F1 mice was determined; assay type: functional; conditions: route intraperitoneal
# Mus musculus [33] = test: Toxicity day survivors was determined by the ratio of animals survived to that of test animals at 60 mg/kg intraperitoneally in CD2F1 mice; 6/6; assay type: organism-based; parameters: dose 60 mg/kg, route intraperitoneal; conditions: in vivo, ip
# Mus musculus [34] = test: Ratio of treated to that of untreated tumor-bearing control animals at 240 mg/kg intraperitoneally in CD2F1 mice was determined; assay type: functional; conditions: route intraperitoneal
smiles,measurement,setting,value
COc1ccc2c(c1)CCn1cc(COC(=O)NC(C)C)c(COC(=O)NC(C)C)c1-2,KE,Mus musculus [1],5.83
same,KE,Mus musculus [2],2.18
same,KE,Mus musculus [3],-1.07
same,T-C,Mus musculus [4],-4.6 g
same,T-C,Mus musculus [5],-4.8 g
same,KE,Mus musculus [6],3.46
same,T-C,Mus musculus [7],-1.8 g
same,T-C,Mus musculus [8],-3 g
same,T-C,Mus musculus [9],-3.4 g
same,T-C,Mus musculus [10],-3.1 g
same,TDS,Mus musculus [11],6
same,TDS,Mus musculus [12],6
same,TDS,Mus musculus [13],4
same,TDS,Mus musculus [14],4
same,TDS,Mus musculus [15],5
same,T/C,Mus musculus [16],232%
same,T/C,Mus musculus [17],174%
same,T/C,Mus musculus [18],125%
same,TDS,Mus musculus [19],6
same,T/C,Mus musculus [20],194%
Cc1c(COC(=O)NC(C)C)c(COC(=O)NC(C)C)c2ccc3ccccc3n12,KE,Mus musculus [21],0.47
same,KE,Mus musculus [22],-1.5
same,KE,Mus musculus [23],-0.5
same,T-C,Mus musculus [4],-1.1 g
same,KE,Mus musculus [24],-0.53
same,T-C,Mus musculus [25],-1.8 g
same,T-C,Mus musculus [26],-3.5 g
same,T-C,Mus musculus [10],-0.5 g
same,TDS,Mus musculus [27],6
same,TDS,Mus musculus [28],6
same,TDS,Mus musculus [29],6
same,T/C,Mus musculus [30],135%
same,T/C,Mus musculus [31],139%
same,T/C,Mus musculus [32],106%
same,TDS,Mus musculus [33],6
same,T/C,Mus musculus [34],129%

# Source: ChEMBL document CHEMBL1124001, “Synthesis and antileukemic activity of bis[[(carbamoyl)oxy]methyl]- substituted pyrrolo[2,1-a]isoquinolines, pyrrolo[1,2-a]quinolines, pyrrolo[2,1-a]isobenzazepines, and pyrrolo[1,2-a]benzazepines” (J Med Chem, 1988)
